Measured values: ChEMBL document CHEMBL1781873, “Synthesis and antibacterial property of pyrrolopyrano quinolinones and pyrroloquinolines” (2011)
Values after ≈ are worked out from the molar mass of the structure shown. Active and inactive are the calls of the source. The rule behind the calls is not given here.

Key:
Bacillus subtilis [1] = assay: Antibacterial activity against Bacillus subtilis at 15 ug after 24 hrs by disc diffusion assay; type: functional; conditions: read-out: IZ
Staphylococcus aureus [2] = assay: Antibacterial activity against Staphylococcus aureus after 18 to 20 hrs by broth micro dilution assay; type: functional
Staphylococcus aureus [3] = assay: Antibacterial activity against Staphylococcus aureus at 5 ug after 24 hrs by disc diffusion assay; type: functional; conditions: read-out: IZ
Escherichia coli [4] = assay: Antibacterial activity against Escherichia coli at 15 ug after 24 hrs by disc diffusion assay; type: functional; conditions: read-out: IZ
Staphylococcus aureus [5] = assay: Antibacterial activity against Staphylococcus aureus at 10 ug after 24 hrs by disc diffusion assay; type: functional; conditions: read-out: IZ
Klebsiella pneumoniae [6] = assay: Antibacterial activity against Klebsiella pneumoniae at 15 ug after 24 hrs by disc diffusion assay; type: functional; conditions: read-out: IZ
Pseudomonas aeruginosa [7] = assay: Antibacterial activity against Pseudomonas aeruginosa at 20 ug after 24 hrs by disc diffusion assay; type: functional; conditions: read-out: IZ
Salmonella typhi [8] = assay: Antibacterial activity against Salmonella typhi at 5 ug after 24 hrs by disc diffusion assay; type: functional, Salmonella enterica subsp. enterica serovar Typhi; conditions: Salmonella enterica, read-out: IZ
Klebsiella pneumoniae [9] = assay: Antibacterial activity against Klebsiella pneumoniae at 5 ug after 24 hrs by disc diffusion assay; type: functional; conditions: read-out: IZ
Escherichia coli [10] = assay: Inhibition of DNA gyrase mRNA expression in Escherichia coli measured up to 24 hrs by RT-PCR; type: functional, organism-based
Pseudomonas aeruginosa [11] = assay: Antibacterial activity against Pseudomonas aeruginosa at 15 ug after 24 hrs by disc diffusion assay; type: functional; conditions: read-out: IZ
Klebsiella pneumoniae [12] = assay: Antibacterial activity against Klebsiella pneumoniae at 10 ug after 24 hrs by disc diffusion assay; type: functional; conditions: read-out: IZ
Bacillus subtilis [13] = assay: Antibacterial activity against Bacillus subtilis at 25 ug after 24 hrs by disc diffusion assay; type: functional; conditions: read-out: IZ
Bacillus subtilis [14] = assay: Antibacterial activity against Bacillus subtilis at 20 ug after 24 hrs by disc diffusion assay; type: functional; conditions: read-out: IZ
Escherichia coli [15] = assay: Antibacterial activity against Escherichia coli at 5 ug after 24 hrs by disc diffusion assay; type: functional; conditions: read-out: IZ
Pseudomonas aeruginosa [16] = assay: Antibacterial activity against Pseudomonas aeruginosa at 5 ug after 24 hrs by disc diffusion assay; type: functional; conditions: read-out: IZ
Pseudomonas aeruginosa [17] = assay: Antibacterial activity against Pseudomonas aeruginosa at 10 ug after 24 hrs by disc diffusion assay; type: functional; conditions: read-out: IZ
Klebsiella pneumoniae [18] = assay: Antibacterial activity against Klebsiella pneumoniae after 18 to 20 hrs by broth micro dilution assay; type: functional
Escherichia coli [19] = assay: Antibacterial activity against Escherichia coli at 25 ug after 24 hrs by disc diffusion assay; type: functional; conditions: read-out: IZ
Bacillus subtilis [20] = assay: Antibacterial activity against Bacillus subtilis at 10 ug after 24 hrs by disc diffusion assay; type: functional; conditions: read-out: IZ
Bacillus subtilis [21] = assay: Antibacterial activity against Bacillus subtilis after 18 to 20 hrs by broth micro dilution assay; type: functional
Staphylococcus aureus [22] = assay: Antibacterial activity against Staphylococcus aureus at 25 ug after 24 hrs by disc diffusion assay; type: functional; conditions: read-out: IZ
Escherichia coli [23] = assay: Inhibition of Escherichia coli DNA gyrase assessed as inhibition of DNA supercoiling activity using pBR322 DNA as substrate at […] after 3 hrs by agarose gel electrophoresis
Escherichia coli [24] = assay: Inhibition of Escherichia coli DNA gyrase -mediated DNA relaxation using pBR322 DNA as substrate at […] after 1 hrs by agarose gel electrophoresis
Staphylococcus aureus [25] = assay: Antibacterial activity against Staphylococcus aureus at 20 ug after 24 hrs by disc diffusion assay; type: functional; conditions: read-out: IZ
Salmonella typhi [26] = assay: Antibacterial activity against Salmonella typhi at 10 ug after 24 hrs by disc diffusion assay; type: functional, Salmonella enterica subsp. enterica serovar Typhi; conditions: Salmonella enterica, read-out: IZ
Klebsiella pneumoniae [27] = assay: Antibacterial activity against Klebsiella pneumoniae at 25 ug after 24 hrs by disc diffusion assay; type: functional; conditions: read-out: IZ
Klebsiella pneumoniae [28] = assay: Antibacterial activity against Klebsiella pneumoniae at 20 ug after 24 hrs by disc diffusion assay; type: functional; conditions: read-out: IZ
Salmonella typhi [29] = assay: Antibacterial activity against Salmonella typhi at 20 ug after 24 hrs by disc diffusion assay; type: functional, Salmonella enterica subsp. enterica serovar Typhi; conditions: Salmonella enterica, read-out: IZ
Pseudomonas aeruginosa [30] = assay: Antibacterial activity against Pseudomonas aeruginosa after 18 to 20 hrs by broth micro dilution assay; type: functional
Escherichia coli [31] = assay: Antibacterial activity against Escherichia coli at 10 ug after 24 hrs by disc diffusion assay; type: functional; conditions: read-out: IZ
Pseudomonas aeruginosa [32] = assay: Antibacterial activity against Pseudomonas aeruginosa at 25 ug after 24 hrs by disc diffusion assay; type: functional; conditions: read-out: IZ
Salmonella typhi [33] = assay: Antibacterial activity against Salmonella typhi at 25 ug after 24 hrs by disc diffusion assay; type: functional, Salmonella enterica subsp. enterica serovar Typhi; conditions: Salmonella enterica, read-out: IZ
Salmonella typhi [34] = assay: Antibacterial activity against Salmonella typhi at 15 ug after 24 hrs by disc diffusion assay; type: functional, Salmonella enterica subsp. enterica serovar Typhi; conditions: Salmonella enterica, read-out: IZ
Salmonella typhi [35] = assay: Antibacterial activity against Salmonella typhi after 18 to 20 hrs by broth micro dilution assay; type: functional, Salmonella enterica subsp. enterica serovar Typhi; conditions: Salmonella enterica
Staphylococcus aureus [36] = assay: Antibacterial activity against Staphylococcus aureus at 15 ug after 24 hrs by disc diffusion assay; type: functional; conditions: read-out: IZ
Escherichia coli [37] = assay: Antibacterial activity against Escherichia coli at 20 ug after 24 hrs by disc diffusion assay; type: functional; conditions: read-out: IZ
Escherichia coli [38] = assay: Antibacterial activity against Escherichia coli after 18 to 20 hrs by broth micro dilution assay; type: functional

Work on `CCC1[C@@H]2Nc3ccc(Cl)cc3C(c3ccccc3)[C@H]2CN1OS(=O)(=O)c1ccc(C)cc1` (some centres undefined) yielded a zone of inhibition at 15 µg/disc (Bacillus subtilis [1]) of 9 mm, an MIC50 (Staphylococcus aureus [2]) of 128 µg/mL (≈ 265 µM) and an MIC90 (Staphylococcus aureus [2]) of 128 µg/mL (≈ 265 µM). For the same compound, the zone of inhibition at 5 µg/disc (Staphylococcus aureus [3]) was 9 mm, the zone of inhibition at 15 µg/disc (Escherichia coli [4]) was 18 mm and the zone of inhibition at 10 µg/disc (Staphylococcus aureus [5]) was 12 mm. The zone of inhibition at 15 µg/disc (Klebsiella pneumoniae [6]) was 30 mm, the zone of inhibition at 20 µg/disc (Pseudomonas aeruginosa [7]) was 22 mm and the zone of inhibition at 5 µg/disc (Salmonella typhi [8]) was 10 mm. The zone of inhibition at 5 µg/disc (Klebsiella pneumoniae [9]) was 20 mm, the “inhibition of gyrase mRNA expression (active/not active)” value (Escherichia coli [10]) was “Active” and the zone of inhibition at 15 µg/disc (Pseudomonas aeruginosa [11]) was 17 mm. The zone of inhibition at 10 µg/disc (Klebsiella pneumoniae [12]) was 26 mm, the zone of inhibition at 25 µg/disc (Bacillus subtilis [13]) was 12 mm and the zone of inhibition at 20 µg/disc (Bacillus subtilis [14]) was 10 mm. It also gave a zone of inhibition at 5 µg/disc (Escherichia coli [15]) of 10 mm, a zone of inhibition at 5 µg/disc (Pseudomonas aeruginosa [16]) of 10 mm and a zone of inhibition at 10 µg/disc (Pseudomonas aeruginosa [17]) of 16 mm. For the same compound, the MIC50 (Klebsiella pneumoniae [18]) was 128 µg/mL (≈ 265 µM), the MIC90 (Klebsiella pneumoniae [18]) was 128 µg/mL (≈ 265 µM) and the zone of inhibition at 25 µg/disc (Escherichia coli [19]) was 23 mm. The zone of inhibition at 10 µg/disc (Bacillus subtilis [20]) was 7 mm, the MIC50 (Bacillus subtilis [21]) was 128 µg/mL (≈ 265 µM) and the MIC90 (Bacillus subtilis [21]) was 128 µg/mL (≈ 265 µM). The zone of inhibition at 25 µg/disc (Staphylococcus aureus [22]) was 17 mm, the “DNA gyrase inhibition (active/inactive)” value (Escherichia coli [23]) was “Active” and the inhibition (Escherichia coli [24]) was “Active”. For the same compound, the zone of inhibition at 20 µg/disc (Staphylococcus aureus [25]) was 14 mm, the zone of inhibition at 10 µg/disc (Salmonella typhi [26]) was 16 mm and the zone of inhibition at 25 µg/disc (Klebsiella pneumoniae [27]) was 36 mm. The zone of inhibition at 20 µg/disc (Klebsiella pneumoniae [28]) was 34 mm, the zone of inhibition at 20 µg/disc (Salmonella typhi [29]) was 20 mm and the MIC50 (Pseudomonas aeruginosa [30]) was 128 µg/mL (≈ 265 µM). The MIC90 (Pseudomonas aeruginosa [30]) was 128 µg/mL (≈ 265 µM), the zone of inhibition at 10 µg/disc (Escherichia coli [31]) was 16 mm and the zone of inhibition at 25 µg/disc (Pseudomonas aeruginosa [32]) was 24 mm. The zone of inhibition at 25 µg/disc (Salmonella typhi [33]) was 22 mm, the zone of inhibition at 15 µg/disc (Salmonella typhi [34]) was 18 mm and the MIC50 (Salmonella typhi [35]) was 128 µg/mL (≈ 265 µM). The MIC90 (Salmonella typhi [35]) was 128 µg/mL (≈ 265 µM), the zone of inhibition at 15 µg/disc (Staphylococcus aureus [36]) was 13 mm and the zone of inhibition at 20 µg/disc (Escherichia coli [37]) was 20 mm. For the same compound, the MIC50 (Escherichia coli [38]) was 128 µg/mL (≈ 265 µM) and the MIC90 (Escherichia coli [38]) was 128 µg/mL (≈ 265 µM).
